Data set [1] is described as follows: Solubility in gastric juice or intestinal juice model fluid (precipitation method using DMSO). The class given is physicochemical. Conditions: room temperature. In a few lines:
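Dissolved amount (μg/mL) quantified by UV of filtrate versus pre-made calibration curves. Precipitation approach: DMSO solutions spiked into pH 1.2 (JP 1st fluid) or pH 6.8 (JP 2nd fluid) medium, shaken at room temperature for 24 h before insolubles were filtered off.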

Data set [2] relates to lipoprotein lipase (LPL) gene. The experiment in a line: LPL mRNA elevating action (RT-PCR quantification of LPL mRNA in C2Cl2 cells). The class given is cell-based, mouse. Conditions: Mus musculus, 24 h, compound 10 μM, ratio relative to the amount of LPL mRNA in cells with DMSO only, read-out: Rate of increase in LPL mRNA. In a few lines:
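Read-out is LPL mRNA relative to vehicle (DMSO = 1), measured by reverse transcription and 20-cycle real-time PCR. Cells were the mouse striated-muscle line C2Cl2, treated 24 h with 10 μM compound in DMEM containing 10% FBS.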

[3] abbreviates: pH 1.2, simulated gastric fluid, kinetic from dmso stock, 1st fluid for Disintegration Test of Japanese Pharmacopoeia (pH: 1.2), read-out: Solubility (μg/mL) 1st fluid.
The mark [4] stands for this setting: pH 6.8, kinetic from dmso stock, 2nd fluid for Disintegration Test of Japanese Pharmacopoeia (pH: 6.8), read-out: Solubility (μg/mL) 2nd fluid.

Here are results for 32 molecules from patent US10570117B2, “Phenylimidazole compound” (Otsuka Pharmaceutical Factory, Inc., priority 2015, dated 2020).

SMILES strings stand for the structures. Converted amounts (≈) assume the structure as drawn. Read-outs that look alike come from different tables or passages of the source.

Take `Cc1cc(OCc2ncc(C(F)(F)F)cc2F)ccc1-c1cnc(-c2ccc(F)nc2)[nH]1` [Example 351]: the melting point lay within 216 to 222 °C. Moreover, in data set [1] (setting [3]), the solubility at 24 h was 85.9 µg/mL (≈ 192 µM). Further, the solubility at 24 h in data set [1] (setting [4]) is 7 µg/mL (≈ 15.7 µM). Besides, the fold induction at 10 µM in data set [2] was found to be 4.12.
In turn, `Cc1cc(OCc2ncc(C(F)(F)F)cc2F)ccc1-c1[nH]c(-c2ccc(F)nc2)nc1Cl` [Example 352] registered a melting point of 204 to 206 °C. The solubility at 24 h in data set [1] (setting [3]) is 9.8 µg/mL (≈ 20.4 µM). Further, the solubility at 24 h in data set [1] (setting [4]) amounted to 6 µg/mL (≈ 12.5 µM). In addition, in data set [2], the fold induction at 10 µM amounted to 5.48.
In the same order, the values of `COc1cc(OCc2ncc(C(F)(F)F)cc2F)ccc1-c1[nH]c(C2CC(F)(F)C2)nc1Cl` [Example 353] are 167 to 169 °C, 85.4 µg/mL (≈ 174 µM), 0.5 µg/mL (≈ 1.02 µM) and 4.08.
In the same order, the values of `COc1cc(-c2[nH]c(C3CC(F)(F)C3)nc2Cl)ccc1OCc1ncc(C(F)(F)F)cc1F` [Example 354] are 159 to 161 °C, 38.8 µg/mL (≈ 78.9 µM), 1.1 µg/mL (≈ 2.24 µM) and 4.44.
Consider `Fc1ccc(-c2nc(Cl)c(-c3ccc(OCc4ncc(C(F)(F)F)cc4F)cc3)[nH]2)cn1` [Example 355], for which the melting point was 180 to 183 °C. Further, the solubility at 24 h in data set [1] (setting [3]) was less than 0.3 µg/mL. Further, the solubility at 24 h in data set [1] (setting [4]) was less than 0.3 µg/mL. Besides, the fold induction at 10 µM in data set [2] stood at 3.59.
As to `CCSc1ccc(-c2ncc(-c3ccc(OCc4ncc(C(F)(F)F)cc4F)cc3OC)[nH]2)cn1` [Example 357], the melting point lay in the range of 145 to 149 °C. Also, the solubility at 24 h in data set [1] (setting [3]) was 7.8 µg/mL (≈ 15.5 µM). Moreover, the solubility at 24 h in data set [1] (setting [4]) is less than 0.3 µg/mL. For the same molecule, in data set [2], the fold induction at 10 µM was determined as 3.59.
The molecule `CCSc1ccc(-c2nc(Cl)c(-c3ccc(OCc4ccc(C(F)(F)F)nc4)cc3OC)[nH]2)cn1` [Example 358] displayed a melting point of 160 to 163 °C. Further, the solubility at 24 h in data set [1] (setting [3]) is 1.6 µg/mL (≈ 3.07 µM). In data set [1] (setting [4]), the solubility at 24 h is less than 0.4 µg/mL. Moreover, the fold induction at 10 µM in data set [2] stood at 4.18.
In turn, `Oc1ccc(-c2cnc(-c3ccc(F)nc3)[nH]2)c(Cl)c1` [Example 359] registered a melting point of 223 to 225 °C. Further, the solubility at 24 h in data set [1] (setting [3]) is 57.3 µg/mL (≈ 198 µM). Moreover, the solubility at 24 h in data set [1] (setting [4]) worked out at 52.8 µg/mL (≈ 182 µM). Moreover, the fold induction at 10 µM in data set [2] was determined as 1.75.
The corresponding values for `Fc1ccc(-c2ncc(-c3ccc(OCc4ncc(C(F)(F)F)cc4F)cc3Cl)[nH]2)cn1` [Example 360] are 169 to 171 °C, 90.7 µg/mL (≈ 194 µM), 0.6 µg/mL (≈ 1.29 µM) and 3.93.
With `Fc1ccc(-c2nc(Cl)c(-c3ccc(OCc4ncc(C(F)(F)F)cc4F)cc3Cl)[nH]2)cn1` [Example 361], the melting point was in the range of 158 to 160 °C. Also, the solubility at 24 h in data set [1] (setting [3]) was 3.4 µg/mL (≈ 6.78 µM). Besides, the solubility at 24 h in data set [1] (setting [4]) was less than 0.4 µg/mL. The fold induction at 10 µM in data set [2] worked out at 5.51.
In turn, `CCc1cc(OCc2ncc(C(F)(F)F)cc2F)ccc1-c1cnc(-c2ccc(F)nc2)[nH]1` [Example 363] came in with a melting point of 115 to 117 °C. The solubility at 24 h in data set [1] (setting [3]) is 104 µg/mL (≈ 225 µM). In data set [1] (setting [4]), the solubility at 24 h came to 6.9 µg/mL (≈ 15 µM). In addition, in data set [2], the fold induction at 10 µM amounted to 2.78.
The corresponding values for `CCc1cc(OCc2ncc(C(F)(F)F)cc2F)ccc1-c1[nH]c(-c2ccc(F)nc2)nc1Cl` [Example 364] are 187 to 188 °C, less than 0.4 µg/mL, less than 0.4 µg/mL and 2.65.
In the case of `COc1cc(OCc2ncc(C(F)(F)F)cc2F)ccc1-c1cnc(C2CCCC2)[nH]1` [Example 365], the melting point was in the range of 97 to 102 °C. In data set [1] (setting [3]), the solubility at 24 h was 77.9 µg/mL (≈ 179 µM). For the same molecule, the solubility at 24 h in data set [1] (setting [4]) was found to be 31.2 µg/mL (≈ 71.7 µM). For the same molecule, the fold induction at 10 µM in data set [2] is 3.02.
In the same order, the values of `COc1cc(OCc2ncc(C(F)(F)F)cc2F)ccc1-c1[nH]c(C2CCCC2)nc1Cl` [Example 367] are 139 to 142 °C, 82.1 µg/mL (≈ 175 µM), less than 0.3 µg/mL and 2.54.
The corresponding values for `COc1cc(-c2[nH]c(C3CCCC3)nc2Cl)ccc1OCc1ncc(C(F)(F)F)cc1F` [Example 368] are 158 to 163 °C, 82.9 µg/mL (≈ 176 µM), 0.5 µg/mL (≈ 1.06 µM) and 2.62.
In the same order, the values of `Fc1ccc(-c2ncc(-c3ccc(OCc4ncc(C(F)(F)F)cc4F)cc3F)[nH]2)cn1` [Example 369] are 167 to 172 °C, 35.9 µg/mL (≈ 79.7 µM), less than 0.3 µg/mL and 1.26.
As for `Fc1ccc(-c2nc(Cl)c(-c3ccc(OCc4ncc(C(F)(F)F)cc4F)cc3F)[nH]2)cn1` [Example 370], the melting point was in the range of 144 to 146 °C. Moreover, the solubility at 24 h in data set [1] (setting [3]) was 1.6 µg/mL (≈ 3.3 µM). The solubility at 24 h in data set [1] (setting [4]) stood at 1.8 µg/mL (≈ 3.71 µM). Further, in data set [2], the fold induction at 10 µM amounted to 3.31.
The corresponding values for `COc1cc(OCc2ncc(C(F)(F)F)cc2F)ccc1-c1[nH]c(C2CCC2)nc1Cl` [Example 373] are 155 to 157 °C, 88.3 µg/mL (≈ 194 µM), less than 0.3 µg/mL and 3.03.
In the same order, the values of `COc1cc(-c2[nH]c(C3CCC3)nc2Cl)ccc1OCc1ncc(C(F)(F)F)cc1F` [Example 374] are 159 to 162 °C, 88.3 µg/mL (≈ 194 µM), 1.2 µg/mL (≈ 2.63 µM) and 2.6.
Consider `COc1cc(OCc2ncc(C(F)(F)F)cc2F)ccc1-c1[nH]c(C2CC2)nc1Cl` [Example 377], for which the melting point was in the range of 151 to 154 °C. Further, the solubility at 24 h in data set [1] (setting [3]) was 84.6 µg/mL (≈ 191 µM). Besides, the solubility at 24 h in data set [1] (setting [4]) is 0.7 µg/mL (≈ 1.58 µM). The fold induction at 10 µM in data set [2] is 1.88.
The corresponding values for `COc1cc(-c2[nH]c(C3CC3)nc2Cl)ccc1OCc1ncc(C(F)(F)F)cc1F` [Example 378] are 161 to 165 °C (dec.), 81.6 µg/mL (≈ 185 µM), 7.5 µg/mL (≈ 17 µM) and 1.24.
In the same order, the values of `COc1cc(OCc2ncc(C(F)(F)F)cc2F)ccc1-c1cnc(C(C)(C)C)[nH]1` [Example 379] are 141 to 144 °C, 79.9 µg/mL (≈ 189 µM), 72.9 µg/mL (≈ 172 µM) and 2.87.
The corresponding values for `COc1cc(-c2cnc(C(C)(C)C)[nH]2)ccc1OCc1ncc(C(F)(F)F)cc1F` [Example 380] are 178 to 182 °C, 81.2 µg/mL (≈ 192 µM), 63.7 µg/mL (≈ 150 µM) and 1.18.
As to `COc1cc(OCc2ncc(C(F)(F)F)cc2F)ccc1-c1cnc(C(C)C)[nH]1` [Example 381], the melting point was in the range of 84 to 89 °C. In addition, in data set [1] (setting [3]), the solubility at 24 h is 78.2 µg/mL (≈ 191 µM). Besides, the solubility at 24 h in data set [1] (setting [4]) is 66.9 µg/mL (≈ 163 µM). In data set [2], the fold induction at 10 µM was found to be 2.19.
`COc1cc(OCc2ncc(C(F)(F)F)cc2F)ccc1-c1[nH]c(C(C)(C)C)nc1Cl` [Example 383]: the melting point was 170 to 172 °C. Also, the solubility at 24 h in data set [1] (setting [3]) was 85.1 µg/mL (≈ 186 µM). In addition, in data set [1] (setting [4]), the solubility at 24 h is less than 0.3 µg/mL. Also, the fold induction at 10 µM in data set [2] was determined as 2.16.
In the same order, the values of `COc1cc(-c2[nH]c(C(C)(C)C)nc2Cl)ccc1OCc1ncc(C(F)(F)F)cc1F` [Example 384] are 179 to 184 °C, 86.4 µg/mL (≈ 189 µM), 1.2 µg/mL (≈ 2.62 µM) and 1.84.
`COc1cc(OCc2ncc(C(F)(F)F)cc2F)ccc1-c1[nH]c(C(C)C)nc1Cl` [Example 385] returned a melting point of 131 to 135 °C. Also, the solubility at 24 h in data set [1] (setting [3]) is 84.7 µg/mL (≈ 191 µM). For the same molecule, in data set [1] (setting [4]), the solubility at 24 h worked out at 2.1 µg/mL (≈ 4.73 µM). Moreover, in data set [2], the fold induction at 10 µM amounted to 3.18.
The corresponding values for `COc1cc(-c2[nH]c(C(C)C)nc2Cl)ccc1OCc1ncc(C(F)(F)F)cc1F` [Example 386] are 188 to 191 °C (dec.), 82.7 µg/mL (≈ 186 µM), 0.9 µg/mL (≈ 2.03 µM) and 2.77.
As to `COc1cc(OCc2ncc(C(F)(F)F)cc2F)ccc1-c1cnc(-c2ccc(Br)nc2)[nH]1` [Example 387], the melting point lay in the range of 191 to 193 °C. Besides, the solubility at 24 h in data set [1] (setting [3]) is 4.8 µg/mL (≈ 9.17 µM). Besides, the solubility at 24 h in data set [1] (setting [4]) was found to be 0.8 µg/mL (≈ 1.53 µM). Further, in data set [2], the fold induction at 10 µM was found to be 2.41.
The corresponding values for `COc1cc(OCc2ccc(C(F)(F)F)nc2)ccc1-c1cnc(-c2ccc(Br)nc2)[nH]1` [Example 388] are 222 to 224 °C, 0.8 µg/mL (≈ 1.58 µM), less than 0.4 µg/mL and 2.13.
`COc1cc(OCc2ncc(C(F)(F)F)cc2F)ccc1-c1cnc(CCC(F)(F)F)[nH]1` [Example 390] yielded a melting point of 76 to 91 °C. Besides, the solubility at 24 h in data set [1] (setting [3]) is 49.5 µg/mL (≈ 107 µM). The solubility at 24 h in data set [1] (setting [4]) stood at 21.6 µg/mL (≈ 46.6 µM). For the same molecule, the fold induction at 10 µM in data set [2] amounted to 2.09.
The corresponding values for `Fc1cc(C(F)(F)F)cnc1COc1ccc(-c2cnc(C3CC(F)(F)C3)[nH]2)cc1` [Example 393] are 191 to 196 °C, greater than 85 µg/mL, 1.9 µg/mL (≈ 4.45 µM) and 1.26.

As a reminder, the melting point is the temperature of the solid-liquid transition.
